Experimental findings from PMC10058238 (Science Advances, 2023) are described below.

What all share (type): biochemical
For test [1], the target named is T1, AtSPT-ORM1 complex (LCB1, LCB2a, SPTssa, ORM1) (Arabidopsis thaliana, UniProt Q94IB8+Q9C5I0+Q9LSZ9).
T1 construct: full-length codon-optimized cDNAs; N-terminal Flag on SPTssa, other chains untagged; HEK293F, GDN; dimer of 1:1:1:1 protomers; endogenous ceramide copurifies; with Long chain base biosynthesis protein 1; Serine palmitoyltransferase small subunit A
The test is described as follows: SPT activity, DTNB detection of CoA-SH release, […] nm. Particulars: 100 mM L-serine, 100 μM palmitoyl-CoA, 25 μM PLP, pH 7.5, 30 °C; active site in LCB2a/LCB1.

Test [2] deals with T2, AtSPT complex (LCB1, LCB2a, SPTssa) (Arabidopsis thaliana, UniProt Q94IB8+Q9LSZ9).
T2 construct: full-length codon-optimized cDNAs; N-terminal Flag on SPTssa, other chains untagged; HEK293F, GDN; without ORM1; with Serine palmitoyltransferase small subunit A
T2 sequence (Q9LSZ9 1-489): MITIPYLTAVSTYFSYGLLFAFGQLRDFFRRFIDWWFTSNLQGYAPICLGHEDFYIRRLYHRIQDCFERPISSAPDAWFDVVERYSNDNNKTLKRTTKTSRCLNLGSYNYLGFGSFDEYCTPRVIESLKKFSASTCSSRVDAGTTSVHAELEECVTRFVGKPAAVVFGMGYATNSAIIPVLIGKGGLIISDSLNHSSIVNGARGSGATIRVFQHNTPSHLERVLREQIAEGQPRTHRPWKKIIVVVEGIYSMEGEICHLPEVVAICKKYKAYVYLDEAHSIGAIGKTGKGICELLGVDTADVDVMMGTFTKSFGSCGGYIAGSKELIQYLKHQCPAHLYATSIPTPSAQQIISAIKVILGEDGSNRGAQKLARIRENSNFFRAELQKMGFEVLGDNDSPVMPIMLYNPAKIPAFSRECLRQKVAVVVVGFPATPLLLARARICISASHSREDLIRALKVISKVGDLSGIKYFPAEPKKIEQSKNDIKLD
T2 sequence (Q94IB8 1-482): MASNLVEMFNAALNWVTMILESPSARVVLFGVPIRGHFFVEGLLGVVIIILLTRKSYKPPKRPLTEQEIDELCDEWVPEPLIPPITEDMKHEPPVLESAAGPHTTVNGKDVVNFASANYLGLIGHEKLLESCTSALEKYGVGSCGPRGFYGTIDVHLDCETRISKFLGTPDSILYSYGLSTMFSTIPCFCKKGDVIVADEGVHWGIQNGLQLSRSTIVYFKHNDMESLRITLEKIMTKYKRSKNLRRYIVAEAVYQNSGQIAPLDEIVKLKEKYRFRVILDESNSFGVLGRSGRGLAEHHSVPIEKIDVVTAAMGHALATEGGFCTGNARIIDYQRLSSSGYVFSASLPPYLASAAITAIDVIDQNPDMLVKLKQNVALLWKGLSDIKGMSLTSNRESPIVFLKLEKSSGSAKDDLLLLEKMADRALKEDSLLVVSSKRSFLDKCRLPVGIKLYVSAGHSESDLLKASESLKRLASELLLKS
T2 sequence (A8MSB8 1-56 partner): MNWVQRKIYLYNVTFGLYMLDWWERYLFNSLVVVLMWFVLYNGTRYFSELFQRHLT
The test is described as above. Conditions: 100 mM L-serine, 100 μM palmitoyl-CoA, 25 μM PLP, pH 7.5, 30 °C; active site in LCB2a/LCB1.

The target of test [3] is T1, AtSPT-ORM1 complex (LCB1, LCB2a, SPTssa, ORM1). The description is as above.
Test [4] has as its target T3, AtSPT-ORM1 complex (LCB1, LCB2a, SPTssa, ORM1) (Arabidopsis thaliana, UniProt Q94IB8+Q9C5I0+Q9LSZ9, Q9C5I0:DEL2-14).
T3 construct: full-length codon-optimized cDNAs; N-terminal Flag on SPTssa, other chains untagged; HEK293F, GDN; dimer of 1:1:1:1 protomers; endogenous ceramide copurifies; with Long chain base biosynthesis protein 1; Serine palmitoyltransferase small subunit A
The test is described as follows: SPT activity, DTNB detection of CoA-SH release, […] nm; sigmoidal fit. Particulars: 100 mM L-serine, 25 μM PLP, pH 7.5, 30 °C; active site in LCB2a/LCB1.

Test [5] has as its target T4, AtSPT-ORM1 complex (LCB1, LCB2a, SPTssa, ORM1) (Arabidopsis thaliana, UniProt Q94IB8+Q9C5I0+Q9LSZ9, Q9C5I0:N17A).
T4 construct: full-length codon-optimized cDNAs; N-terminal Flag on SPTssa, other chains untagged; HEK293F, GDN; dimer of 1:1:1:1 protomers; endogenous ceramide copurifies; with Long chain base biosynthesis protein 1; Serine palmitoyltransferase small subunit A
The description is as above. Particulars: 100 mM L-serine, 25 μM PLP, pH 7.5, 30 °C; active site in LCB2a/LCB1.

The target of test [6] is T3, AtSPT-ORM1 complex (LCB1, LCB2a, SPTssa, ORM1). The test is described as follows: SPT activity, DTNB detection of CoA-SH release, […] nm. Particulars: saturating 100 mM L-serine, 100 μM palmitoyl-CoA, 25 μM PLP, pH 7.5, 30 °C; ceramide site.
For test [7], the target named is T5, AtSPT-ORM1 complex (LCB1, LCB2a, SPTssa, ORM1) (Arabidopsis thaliana, UniProt Q94IB8+Q9C5I0+Q9LSZ9, Q9LSZ9:DEL2-5).
T5 construct: full-length codon-optimized cDNAs; N-terminal Flag on SPTssa, other chains untagged; HEK293F, GDN; dimer of 1:1:1:1 protomers; endogenous ceramide copurifies; with Long chain base biosynthesis protein 1; Serine palmitoyltransferase small subunit A
Described as above.

For test [8], the target named is T4, AtSPT-ORM1 complex (LCB1, LCB2a, SPTssa, ORM1). Described as above.
Test [9] has as its target T6, AtSPT-ORM1 complex (LCB1, LCB2a, SPTssa, ORM1) (Arabidopsis thaliana, UniProt Q94IB8+Q9C5I0+Q9LSZ9, Q9C5I0:DEL2-8).
T6 construct: full-length codon-optimized cDNAs; N-terminal Flag on SPTssa, other chains untagged; HEK293F, GDN; dimer of 1:1:1:1 protomers; endogenous ceramide copurifies; with Long chain base biosynthesis protein 1; Serine palmitoyltransferase small subunit A
The test is described as above.

The target of test [10] is T7, AtSPT-ORM1 complex (LCB1, LCB2a, SPTssa, ORM1) (Arabidopsis thaliana, UniProt Q94IB8+Q9C5I0+Q9LSZ9, Q9C5I0:S67R).
T7 construct: full-length codon-optimized cDNAs; N-terminal Flag on SPTssa, other chains untagged; HEK293F, GDN; dimer of 1:1:1:1 protomers; endogenous ceramide copurifies; with Long chain base biosynthesis protein 1; Serine palmitoyltransferase small subunit A
The test is described as above.

In test [11] the target is T8, AtSPT-ORM1 complex (LCB1, LCB2a, SPTssa, ORM1) (Arabidopsis thaliana, UniProt Q94IB8+Q9C5I0+Q9LSZ9, Q9C5I0:W88R).
T8 construct: full-length codon-optimized cDNAs; N-terminal Flag on SPTssa, other chains untagged; HEK293F, GDN; dimer of 1:1:1:1 protomers; endogenous ceramide copurifies; with Long chain base biosynthesis protein 1; Serine palmitoyltransferase small subunit A
The test is described as above. Conditions: saturating 100 mM L-serine, 100 μM palmitoyl-CoA, 25 μM PLP, pH 7.5, 30 °C; ceramide site.

Test [12] has as its target T9, AtSPT-ORM1 complex (LCB1, LCB2a, SPTssa, ORM1) (Arabidopsis thaliana, UniProt Q94IB8+Q9C5I0+Q9LSZ9, Q9C5I0:N17A/Q9C5I0:S67R).
T9 construct: full-length codon-optimized cDNAs; N-terminal Flag on SPTssa, other chains untagged; HEK293F, GDN; dimer of 1:1:1:1 protomers; endogenous ceramide copurifies; with Long chain base biosynthesis protein 1; Serine palmitoyltransferase small subunit A
The description is as above. Particulars: saturating 100 mM L-serine, 100 μM palmitoyl-CoA, 25 μM PLP, pH 7.5, 30 °C; ceramide site.

The target of test [13] is T10, AtSPT-ORM1 complex (LCB1, LCB2a, SPTssa, ORM1) (Arabidopsis thaliana, UniProt Q94IB8+Q9C5I0+Q9LSZ9, Q9C5I0:W20R).
T10 construct: full-length codon-optimized cDNAs; N-terminal Flag on SPTssa, other chains untagged; HEK293F, GDN; dimer of 1:1:1:1 protomers; endogenous ceramide copurifies; with Long chain base biosynthesis protein 1; Serine palmitoyltransferase small subunit A
Described as above. Particulars: saturating 100 mM L-serine, 100 μM palmitoyl-CoA, 25 μM PLP, pH 7.5, 30 °C; ceramide site.

T1 sequence (Q9C5I0 1-157, one chain of several): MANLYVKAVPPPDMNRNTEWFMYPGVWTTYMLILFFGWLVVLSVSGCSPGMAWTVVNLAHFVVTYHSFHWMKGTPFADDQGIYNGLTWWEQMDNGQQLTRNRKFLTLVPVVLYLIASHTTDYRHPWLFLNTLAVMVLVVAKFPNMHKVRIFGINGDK
T4 sequence (Q9C5I0 1-157 N17A, one chain of several): as the sequence (Q9C5I0 1-157, one chain of several) above, with N17A counted along it
T3 sequence (Q9C5I0 entry or part of it DEL2-14, one chain of several): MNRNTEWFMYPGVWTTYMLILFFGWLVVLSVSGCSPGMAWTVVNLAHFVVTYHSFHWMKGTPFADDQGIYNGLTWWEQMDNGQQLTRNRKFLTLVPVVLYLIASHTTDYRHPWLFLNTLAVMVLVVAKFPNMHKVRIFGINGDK
T5 sequence (Q9LSZ9 with tags, fused parts or gaps DEL2-5, one chain of several): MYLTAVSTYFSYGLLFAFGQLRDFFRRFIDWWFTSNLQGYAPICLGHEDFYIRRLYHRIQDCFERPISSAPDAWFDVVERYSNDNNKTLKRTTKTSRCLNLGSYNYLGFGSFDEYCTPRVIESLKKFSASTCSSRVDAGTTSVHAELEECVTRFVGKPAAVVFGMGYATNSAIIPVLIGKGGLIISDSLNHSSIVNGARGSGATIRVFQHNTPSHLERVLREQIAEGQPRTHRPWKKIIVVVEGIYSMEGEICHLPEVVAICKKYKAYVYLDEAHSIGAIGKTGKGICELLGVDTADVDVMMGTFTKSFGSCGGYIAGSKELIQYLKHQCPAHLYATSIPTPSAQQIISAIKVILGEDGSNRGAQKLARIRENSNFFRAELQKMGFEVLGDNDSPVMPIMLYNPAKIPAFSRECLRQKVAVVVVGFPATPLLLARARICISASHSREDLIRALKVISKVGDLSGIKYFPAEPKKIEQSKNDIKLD
T5 sequence (Q9C5I0 1-157, stated change not applied, one chain of several): as the sequence (Q9C5I0 1-157, one chain of several) above
T7 sequence (Q9C5I0 1-157 S67R, one chain of several): as the sequence (Q9C5I0 1-157, one chain of several) above, with S67R counted along it
T6 sequence (Q9C5I0 entry or part of it DEL2-8, one chain of several): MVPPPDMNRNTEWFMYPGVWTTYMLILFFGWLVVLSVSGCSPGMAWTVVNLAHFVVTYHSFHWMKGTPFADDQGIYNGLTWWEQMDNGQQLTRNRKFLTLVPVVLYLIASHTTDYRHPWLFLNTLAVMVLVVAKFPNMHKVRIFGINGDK
T8 sequence (Q9C5I0 1-157 W88R, one chain of several): as the sequence (Q9C5I0 1-157, one chain of several) above, with W88R counted along it
T9 sequence (Q9C5I0 1-157 N17A/S67R, one chain of several): as the sequence (Q9C5I0 1-157, one chain of several) above, with N17A, S67R counted along it
T10 sequence (Q9C5I0 1-157 W20R, one chain of several): as the sequence (Q9C5I0 1-157, one chain of several) above, with W20R counted along it

For `CCCCCCC(=O)CCCCCC/C=C/C[C@@H](O)[C@H](O)[C@@](N)(CO)C(=O)O` [myriocin], the “inhibition at 10 μM” value in [1] and in test [2] was “can be repressed by a potent SPT-specific inhibitor myriocin” each time.

A word on the IC50: it is the concentration that inhibits the measured activity by half. A lower IC50 goes with inhibition by little substance. As to `CCCCCCCCCCCCC/C=C/[C@@H](O)[C@H](CO)NC(=O)CCCCC` [C6-ceramide], the 50% inhibitory concentration (IC50) in test [3] came out at 3500 nM.

For `CCCCCCCCCCCCCCCC(=O)SCCNC(=O)CCNC(=O)[C@H](O)C(C)(C)COP(=O)(O)OP(=O)(O)OC[C@H]1O[C@@H](n2cnc3c(N)ncnc32)[C@H](O)[C@@H]1OP(=O)(O)O` [palmitoyl-CoA], the Khalf entry is “the Khalf value of the AtSPT-ORM1 (ORM1-ΔN14) variant toward palmitoyl-CoA was much lower” in [4] and “the Khalf value of the variant toward palmitoyl-CoA was nearly seven times as high” in [5].

Take `CCCCCCCCCCCCCC[C@@H](O)[C@@H](O)[C@H](CO)NC(=O)CCCCC` [C6-phytoceramide]: the “SPT activity, DTNB detection of CoA-SH release, 412 nm” value is on record as “basically eliminated the inhibitory effect of C6-phytoceramide” in test [6], “ORM1-W20R or ORM1-W88R mutation also virtually abolished the inhibitory effect of C6-phytoceramide” in test [11], “ORM1-N17A/S67R double mutation nearly eliminated the inhibitory effect of C6-phytoceramide” in test [12] and “ORM1-W20R or ORM1-W88R mutation also virtually abolished the inhibitory effect of C6-phytoceramide” in test [13]. Moreover, the IC50 in [7] amounted to 990 nM; in test [8], 1680 nM; in test [9] it was 1280 nM; in [10], 1260 nM; in test [3], 320 nM.
